Results: patent US20250101448A1, “Protein, Gene and Their Vectors and Applications that Control Symbiotic Nitrogen Fixation Efficiency of Soybeans” (priority 2022, published 2025)

Columns and labels:
GmNAP1 protein = assay: isothermal titration calorimetry, binding of GmNAP1 to AMP/ADP/ATP/cAMP; design: species or system soybean; conditions: ITC, GmNAP1 expressed in Escherichia coli and purified
Source text: (§1) Utilize the prokaryotic expression system of Escherichia coli to express and purify GmNAS1 and GmNAP1 proteins; and then utilize isothermal titration calorimetry to detect the binding ability of GmNAS1/GmNAP1 to AMP, ADP, ATP and cAMP.

[1] = test system: GmNAS1 protein lacking any one CBS functional domain; assay: isothermal titration calorimetry, GmNAS1 protein lacking a CBS functional domain, binding to AMP; design: species or system soybean; conditions: ITC
Source text: as §1

GmNFYC10a-GFP = GmNFYC10a-GFP fluorescence localization in sections of mature root nodules; format: cell-based, soybean; conditions: nodule sections treated for 2 hours, 25 days after inoculation with Rhizobia
Source text: This application also uses co-immunoprecipitation coupled mass spectrometry analysis technology to search for candidate proteins that bind to GmNAP1. In the mass spectrometry results, a transcription factor GmNFYC10a is discovered. […] In order to verify this speculation, we first obtains GmNFYC10a-GFP transgenic hairy roots, and carrying out vibration sectioning of mature root nodules 25 days after inoculation with Rhizobia. […] (FIG. 14).

[2] = test system: interaction between GmNAS1 and GmNFYC10a; assay: pull-down of GmNAS1 and GmNFYC10a interaction; format: binding, soybean
GmNAS1 protein = assay: isothermal titration calorimetry, binding of GmNAS1 to AMP/ADP/ATP/cAMP; design: species or system soybean; conditions: ITC
Source text: as §1

soybean root nodules = assay: nodule nitrogenase activity after sucrose treatment of plants inoculated with USDA110; format: in vivo; conditions: wild-type W82, 3% (w/v) sucrose solution for three days
Protocol: Design editing site identification primers based on the target sequences of sgRNA on GmNAS1 and GmNAP1, amplify the corresponding fragments and send them for sequencing. The sequencing results are analyzed and four function loss mutants of cr-nas1, cr-nap1, cr-nas1nap1-1 and cr-nas1nap1-2 are obtained. The nodule number, nodule weight and nodule nitrogenase activity on the 25th day after the mutant plants are inoculated with Rhizobia USDA110 are measured.
By utilizing gene editing technology, we obtain the functional knockout mutant cr-nas1 of GmNAS1, the functional knockout mutant cr-nap1 of GmNAP1, and the double knockout mutants cr-nas1nap1-1 and cr-nas1nap1-2 of GmNAS1 and GmNAP1. The root nodules of these four soybean mutants are phenotypically determined 25 days after inoculation with USDA110.

[3] = test system: soybean root nodule cells; assay: GmNFYC10a nuclear protein level and glycolysis gene expression in root nodules before and after sucrose treatment; format: in vivo; conditions: after sucrose treatment

In the case of `Nc1ncnc2c1ncn2[C@@H]1O[C@H](COP(=O)(O)OP(=O)(O)O)[C@@H](O)[C@H]1O` [ADP], the “binding to GmNAP1” value (GmNAP1 protein) is reported as “does not bind”.

With `Nc1ncnc2c1ncn2[C@@H]1O[C@H](COP(=O)(O)O)[C@@H](O)[C@H]1O` [AMP] the “binding to GmNAP1” value (GmNAP1 protein) was “does not bind”, the “binding to GmNAS1 protein lacking any one CBS functional domain” value [1] was “not capable of binding” and the “GmNFYC10a-GFP fluorescence in the nucleus” value (GmNFYC10a-GFP) was “increased significantly”. For the same compound, the “effect on interaction between GmNAS1 and GmNFYC10a” value [2] was “significantly inhibit”.

With `Nc1ncnc2c1ncn2[C@@H]1O[C@H](COP(=O)(O)OP(=O)(O)OP(=O)(O)O)[C@@H](O)[C@H]1O` [ATP] the “binding to GmNAP1” value (GmNAP1 protein) was “does not bind” and the “binding to GmNAS1” value (GmNAS1 protein) was “does not bind”.

`CC[C@H]1/C=C/C=C/C[C@@H](C)[C@H](O)[C@@](C)(O)C(=O)[C@@H](C)[C@H](O)[C@@H](C)C(=O)[C@@H](C)[C@H](O)[C@@H](C)/C=C/C(=O)O[C@@H]2[C@H](C)[C@H](CC1)O[C@]1(CC[C@H](C)[C@H](C[C@@H](C)O)O1)[C@H]2C` [oligomycin] was tested, and the “GmNFYC10a-GFP fluorescence in the nucleus” value (GmNFYC10a-GFP) was “increased significantly”.

For `OC[C@H]1O[C@@](CO)(O[C@H]2O[C@H](CO)[C@@H](O)[C@H](O)[C@H]2O)[C@@H](O)[C@@H]1O` [sucrose], the “nitrogenase activity of wild-type plants vs plants without sucrose” value (soybean root nodules) was “significantly higher”, the “protein content of GmNFYC10a in the nucleus” value ([3]; nuclei of soybean root nodule cells) was “decreases significantly” and the “expression of glycolysis-related genes” value ([3]; root nodules) was “significantly down-regulated”.
